Consider 22 compounds from PubChem BioAssay (NCI).

Holding throughout (experiment): growth of human tumour cells (NCI), 48 h
Test [1] concerns NCI-H522 lung.
Test [2] has as its system DU-145 prostate.
For test [3], the system named is MALME-3M melanoma.
In test [4] the test system is SNB-75 CNS.
Test [5] deals with UO-31 renal.
In test [6] the test system is SK-OV-3 ovarian.
In test [7] the test system is HCC-2998 colon.
Test [8] has as its system HOP-62 NSCLC.
The subject of test [9] is HCT-15 colon.
The test system of test [10] is U251 CNS.

Values joined by “and” are separate entries in the source; they are usually repeats but may differ in a detail not shown here. Equal entries are not always repeated.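 Growth conditions: 96-well plates. Treatment: test compound, 48 hours, 5 concentrations. Analysis: linear interpolation between bracketing concentrations; unreached endpoints set to highest concentration. GI50 marks 50% less growth. TGI: total growth inhibition.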 A value given as a limit tells only on which side of the number the result lay.

As for `C/C(=C\CNc1ncnc2nc(Cl)[nH]c12)CO`, the TGI in test [1], in test [2], in test [3], in [4], in test [5] and in [6] was greater than 100 µM throughout. Moreover, the TGI in test [7] and in test [8] was greater than 100 µM in each case.
With `O=P(O)(O)OP(=O)(O)O`, the TGI in [1], in [2], in [9], in test [3], in test [4] and in test [5] was greater than 100 µM in each case. In addition, the TGI in test [6], in test [7], in [10] and in test [8] was greater than 100 µM in each case.
As for `COC(=O)c1c(O)ccc2c1c1c(n2Cc2ccccn2)C(=O)c2ccccc2C1`, the TGI in test [2], in test [9], in test [3], in test [4], in test [5] and in test [6] was greater than 100 µM in each case. For the same compound, the TGI in [10] and in test [8] was greater than 100 µM in each case.
Turning to `Fc1cc(C2=C[C@H](c3ccc4c(c3)OCO4)NC(=S)N2)c(Cl)cc1Cl`, the TGI in test [1] was greater than 100 µM; in [2] it was greater than 100 µM; in test [9] it was greater than 100 µM; in [3] it was 95.4 µM; in test [4] it was 91.1 µM; in [5], greater than 100 µM. The TGI in test [6] was greater than 100 µM; in test [7] it was 75.4 µM; in [10], greater than 100 µM; in test [8], greater than 100 µM.
Turning to `Clc1ccc(NCc2nnc(COc3ccc(OCc4nnc(CNc5ccc(Cl)cc5)o4)c(Cl)c3)o2)cc1`, the TGI in test [1] is 46.5 µM; in test [2] it was greater than 100 µM; in [9] it was greater than 100 µM; in test [3] it was greater than 100 µM; in test [5], greater than 100 µM; in test [7], greater than 100 µM. In addition, the TGI in test [10] and in [8] was greater than 100 µM in each case.
As for `CCOC(=O)C(C)OC(=O)c1ccc(C)cc1` (stereo not given), the TGI in test [1], in test [9], in test [3], in [4], in test [5] and in [6] was greater than 100 µM throughout. In addition, the TGI in test [7] and in test [10] was greater than 100 µM in each case.
As for `CN(C)C/C=C(/c1ccc(Br)cc1)c1cccnc1`, the TGI in test [1] is greater than 100 µM; in test [2], greater than 100 µM; in [9], greater than 100 µM; in [3], 44.1 µM; in [4], greater than 100 µM; in [5], greater than 100 µM. Moreover, the TGI is greater than 100 µM in test [6], 29.8 µM in test [7], greater than 100 µM in [10] and greater than 100 µM in [8].
Take `CCCCCCOC(=O)C(N)Cc1ccc(OC)cc1` (stereo not given): the TGI in [1], in test [2], in test [9], in test [3], in [4] and in test [5] was greater than 100 µM throughout. The TGI in test [6], in test [10] and in [8] was greater than 100 µM throughout.
For the compound `O=C(N/N=C\c1ccc([N+](=O)[O-])cc1)Nc1ccccc1`, the TGI in test [2], in test [9], in test [3], in test [4], in [5] and in test [6] was greater than 100 µM each time. Further, the TGI in test [10] and in [8] was greater than 100 µM each time.
Consider `NC(CCc1ccccc1)(C(=O)O)c1ccccc1` (stereo not given), for which the TGI in test [1], in test [2], in test [9], in test [3], in test [4] and in [5] was greater than 100 µM in each case. Also, the TGI in [7], in [10] and in test [8] was greater than 100 µM throughout.
Take `O=c1oc2c(ccc3occc32)c(N2CCCCC2)c1-c1ccccc1`: the TGI is greater than 100 µM in [1]; greater than 100 µM in test [9]; greater than 100 µM in test [3]; greater than 100 µM in [4]; greater than 30.3 µM in test [5]; greater than 100 µM in test [6]. The TGI in [7], in test [10] and in [8] was greater than 100 µM each time. Besides, in test [6], the GI50 is greater than 100 µM.
As to `C[C@H](Nc1ccc(C#N)n(C)c1=O)c1cc2cc(Cl)ccc2[nH]c1=O`, the GI50 in test [1] is 29.6 µM; in test [2] it was 33 µM; in test [9], 28.6 µM; in [3], 25.3 µM; in [4], 4.67 µM; in test [5] it was 17.6 µM. Besides, the GI50 in test [6] is 23.9 µM; in test [7] it was 33.5 µM; in [10], 30 µM; in test [8], 25.7 µM. Besides, the TGI in test [1] is greater than 100 µM; in [2], greater than 100 µM; in test [9], greater than 100 µM; in [3], greater than 100 µM; in test [4], 55.4 µM; in [5], greater than 100 µM. Also, the TGI is 75.1 µM in [6], greater than 100 µM in test [7], greater than 100 µM in test [10] and greater than 100 µM in test [8].
Consider `CC(Br)C(=O)c1ccc2cc(Br)c3ccccc3c2c1` (stereo not given), for which the TGI in [1] is 16.7 µM; in [2] it was 31.3 µM; in test [9], 31 µM; in [3], 28.8 µM; in [4] it was 29 µM; in [5] it was 32 µM. Also, the TGI in test [6] came to 30.8 µM; in test [7], 29.6 µM; in test [10], 26.5 µM; in [8], 32.4 µM.
Take `NCCCCN`: the TGI in [1], in [2], in test [9], in [3], in [4] and in [5] was greater than 100 µM throughout. In addition, the TGI in test [6], in test [7], in test [10] and in [8] was greater than 100 µM in each case.
Take `CCOC(=O)C(=CNC(Cc1c[nH]c2ccccc12)C(=O)OC)C(=O)OCC` (stereo not given): the TGI in [1], in [9], in test [3], in test [4], in test [5] and in test [6] was greater than 100 µM each time. The compound also had a TGI in test [10] greater than 100 µM.
Regarding `CC(C)(C)c1ccc(O)c(Br)c1`, the TGI in test [1], in [2], in [9], in test [3], in test [4] and in test [5] was greater than 100 µM throughout. In addition, the TGI in [6], in test [7], in test [10] and in [8] was greater than 100 µM in each case.
Consider `CC(C)(C)OC(=O)N1C(C2=COc3ccccc3O2)=COc2cccnc21`, for which the TGI in [1] was 3.49 µM; in test [2], 2.76 µM; in test [9], 3.46 µM; in [3], 2.76 µM; in test [4], 29.2 µM; in test [5], 3.1 µM. For the same compound, the TGI in test [6] turned out to be 3.99 µM; in test [7], 3.16 µM; in [10], 3.13 µM; in test [8], 3.5 µM.
Regarding `O=C(CSc1nc2ccc(Cl)cc2c(=O)n1-c1ccccc1)N=Nc1c(O)[nH]c2ccc(F)cc12`, the TGI in [1] amounted to 3.86 µM; in test [2] it was 4.85 µM; in test [9], 3.45 µM; in test [3], 11.6 µM; in test [4], 5.65 µM; in test [5] it was 0.411 µM. Moreover, the TGI in [6] came out at 22.3 µM; in test [7], 8.73 µM; in [10], 3.27 µM; in [8], 4.19 µM.
Regarding `Cc1cc(N2CCOCC2)nc(N(CCCNc2ccnc3cc(Cl)ccc23)Cc2ccc3c(c2)OCO3)n1`, the GI50 is 1.43 µM in test [2], 1.5 µM in test [4], 2.29 µM in test [6] and 0.936 µM in test [10]. For the same compound, the TGI amounted to 2.93 µM in test [2], 2.93 µM in test [4], 4.54 µM in test [6] and 2.12 µM in test [10].
Consider `Cc1cc(O)c2c(c1O)C(=O)c1c(O)ccc(O)c1C2=O`, for which the TGI in test [1], in [2], in [9], in test [3], in test [4] and in test [6] was greater than 100 µM throughout. Also, the TGI in test [7], in test [10] and in test [8] was greater than 100 µM each time.
Take `NC(N)=NS(=O)(=O)c1ccc(Nc2c3ccccc3nc3c(C(=O)N4CCN(CCO)CC4)ccc(Cl)c23)cc1`: the TGI in test [9], in [3], in [4], in test [5], in [6] and in test [7] was greater than 100 µM each time. For the same compound, the TGI in [10] and in [8] was greater than 100 µM throughout.
For the compound `COC1OC(C(=O)CP(=O)(OC)OC)C(OCc2ccccc2)C(OCc2ccccc2)C1OCc1ccccc1` (stereo not given), the TGI was 29.5 µM and 32.2 µM in test [1]; 31.3 µM and 33.5 µM in test [2]; 33.4 µM and 36.1 µM in test [9]; 32.4 µM and 34.5 µM in test [3]; 29.9 µM and 30.6 µM in [4]; 30.9 µM and 23.5 µM in test [5]. Besides, the TGI in test [6] was 32.7 µM and 32.6 µM; in [7], 31.5 µM and 29.7 µM; in test [10], 29 µM and 30.3 µM; in test [8], 32 µM and 32.5 µM.
